Measured values as given in patent US20060019938A1, “Estrogen administration for treating male cognitive dysfunction or improving male cognitive function” (priority 2003, published 2006).

Key:
Assay type in all cases: in vivo, human
[1] = tested on: men with androgen-independent prostate cancer; assay: Paragraph Recall test (immediate and delayed; long-term/verbal memory)
Experimental: One illustrative declarative memory test for assessing the medial temporal lobe memory system is known as a Paragraph Recall Task. This task is a subtest of the Weschler Memory Scale—Revised. A subject is read a short story and then immediately asked to recall the story. After an approximate 30 minute retention interval, they are asked to recall the story again. The recall responses are scored for number of story items correctly recalled and there is a standard scoring system. There are two stories for each administration so the total score is the total of both stories combined; one for immediate memory; and one for delayed memory.
(§1) Estradiol was transdermally administered to nineteen men with androgen-independent prostate cancer following a protocol outlined below.
(§2) Standard prophylactic breast irradiation was offered to all patients prior to therapy to reduce the risk of gynecomastia. Six Climara® estradiol patches (25.0 cm^2, 7.6 mg estradiol per patch) were adhered to the patients once every 7 days for a period of at least 4 weeks for a dosage of 0.6 mg estradiol/day (in vivo estradiol delivery per patch is 0.1 mg/day).
(§3) Certain cognitive functions of the patients were evaluated prior to starting estradiol treatment and approximately 4 weeks after starting estradiol treatment. Specifically, memory was assessed using immediate and delayed Paragraph Recall test and working memory was assessed using the SOP and Trails tests. Serum estradiol concentration was also measured after approximately 4 weeks of treatment, as well as other standard monitoring measurements. The Paragraph Recall test was performed as described above. The SOP test was performed as described above and was computer-administered with 8 and 10 card sets. Each card of the set was depicted on a computer screen and the subject selected the drawing for each card by pressing a corresponding number on the keyboard. The Trails test was performed as described above.
(§4) The monitoring was similar as described above in connection with example 1. Certain cognitive functions of the patients were evaluated at the beginning of the study and then approximately 4 weeks later. In the case of patients receiving estradiol treatments, the patients were evaluated prior to the initial estradiol and then approximately 4 weeks after starting estradiol treatment. Verbal memory was assessed using the immediate Paragraph Recall test and working memory was assessed using the Trails tests. Serum estradiol concentration was also measured after approximately 4 weeks of treatment, as well as other standard monitoring measurements.

[2] = Serum estradiol concentration during transdermal estradiol treatment
Experimental: Standard prophylactic breast irradiation was offered to all patients prior to therapy to reduce the risk of gynecomastia. Six […]® estradiol patches (25.0 cm^2, 7.6 mg estradiol per patch) were adhered to the patients once every 7 days for a period of at least 4 weeks for a dosage of 0.6 mg estradiol/day (in vivo estradiol delivery per patch is 0.1 mg/day). Certain cognitive functions of the patients were evaluated prior to starting estradiol treatment and approximately 4 weeks after starting estradiol treatment. Specifically, memory was assessed using immediate and delayed Paragraph Recall test and working memory was assessed using the SOP and Trails tests. Serum estradiol concentration was also measured after approximately 4 weeks of treatment, as well as other standard monitoring measurements. The Paragraph Recall test was performed as described above. The SOP test was performed as described above and was computer-administered with 8 and 10 card sets. Each card of the set was depicted on a computer screen and the subject selected the drawing for each card by pressing a corresponding number on the keyboard. The Trails test was performed as described above. The monitoring was similar as described above in connection with example 1. Certain cognitive functions of the patients were evaluated at the beginning of the study and then approximately 4 weeks later. In the case of patients receiving estradiol treatments, the patients were evaluated prior to the initial estradiol and then approximately 4 weeks after starting estradiol treatment. Verbal memory was assessed using the immediate Paragraph Recall test and working memory was assessed using the Trails tests. Serum estradiol concentration was also measured after approximately 4 weeks of treatment, as well as other standard monitoring measurements.

[3] = tested on: prostate cancer patients progressing on ADT; assay: Profile of Mood States (POMS) test, confusion subscale; conditions: Example 2, prostate cancer patients progressing on ADT
Description: Research subjects consisted of healthy men, and men who have been diagnosed with prostate cancer that were between the ages of 45-100. The subjects were classified into three groups: (1) Prostate cancer patients progressing on ADT and before and after starting second line therapy with transdermal estradiol as described above; (2) Prostate cancer patients continuing ADT; and (3) Age-matched healthy controls. The treatment regimen of these men was not modified as part of their participation in this study. Exclusion criteria included currently taking hormone replacement, active malignancy other than prostate cancer or non-melanoma skin cancer, major surgery within last 4 weeks, and score less than 25 on the Mini-Mental State Exam (a screening measure for dementia). The participant characteristics are shown below in Table 3.
The estradiol administration was the same as in example 1.
Mood was assessed using a Profile of Mood States (POMS) test as described in McNair et al, Profile of mood states manual (Education and Industrial Testing Service, San Diego (1971)). Participants completed the POMS test at both testing sessions (i.e., beginning of study and 4 weeks later). The scale asks participants to rate how they felt in the last week. Responses are categorized into six subscales (tension-anxiety, depression, anger, fatigue, confusion and vigor). […]

[4] = tested on: men with androgen-independent prostate cancer; assay: Toxicity monitoring (thromboembolic complications) during transdermal estradiol; conditions: 0.6 mg estradiol/day transdermal, at time of most recent analysis
Experimental: as §2, §3

[5] = tested on: men with androgen-independent prostate cancer; assay: Trails working memory test
Description: A further illustrative working memory test is known as the Trails test. This test is a dot-to-dot paper pencil test where the subject connects dots (1-2-3-4 etc.). On a second measure they connect dots but the dots are labeled alternately in letters and numbers so they have to shift their cognitive set and keep in mind where they are in each set: 1 to A to 2 to B to 3 etc. Their score is the number of seconds to complete the dot to dot. Estradiol was transdermally administered to nineteen men with androgen-independent prostate cancer following a protocol outlined below. Standard prophylactic breast irradiation was offered to all patients prior to therapy to reduce the risk of gynecomastia. […] Certain cognitive functions of the patients were evaluated prior to starting estradiol treatment and approximately 4 weeks after starting estradiol treatment. Specifically, memory was assessed using immediate and delayed Paragraph Recall test and working memory was assessed using the SOP and Trails tests. Serum estradiol concentration was also measured after approximately 4 weeks of treatment, as well as other standard monitoring measurements. […] Certain cognitive functions of the patients were evaluated at the beginning of the study and then approximately 4 weeks later. […] Verbal memory was assessed using the immediate Paragraph Recall test and working memory was assessed using the Trails tests. […]

[6] = tested on: men with androgen-independent prostate cancer; assay: Subject Ordered Pointing (SOP) working memory test
Description: An illustrative working memory test is known as Subject Ordered Pointing (SOP). SOP is described, for example, in Janowsky et al., “Sex steroids modify working memory,” J Cogn Neuroscience 12(3):407-14, 2000 and Petrides et al., “Deficits on subject-ordered tasks after frontal- and temporal-lobe lesions in man,” Neuropsychologia 20:249-62, 1982. In general, subjects are presented with stacks of cards (6, 8, 10 or 12 cards/sets). […] The subject is to touch one drawing on each card in any order, but not touch the same drawing on subsequent cards in the set. Subjects err when they touch a drawing that had been touched on a previous card in the set. Therefore, the subject has to remember previous drawings touched while planning a future response. Subjects repeat each 6, 8, 10, and 12 card set three times. The total number of errors across all card sets is the measure of interest. […] Subjects are instructed to do the task at their own pace, and to try to not go too quickly or too slowly.
as §1, §2
as §3, with “Each card of the set was depicted on a computer screen and the subject selected the drawing for each card by pressing a corresponding number on the keyboard. The Trails test was performed as described above.” left out

[7] = Serum testosterone (total and free) before and after transdermal estradiol; conditions: Visit 2, after about 4 weeks transdermal estradiol, Example 2
Description: Research subjects consisted of healthy men, and men who have been diagnosed with prostate cancer that were between the ages of 45-100. The subjects were classified into three groups: (1) Prostate cancer patients progressing on ADT and before and after starting second line therapy with transdermal estradiol as described above; (2) Prostate cancer patients continuing ADT; and (3) Age-matched healthy controls. The treatment regimen of these men was not modified as part of their participation in this study. […]
as §4

[8] = Example 1, men with AIPC treated with estradiol
[9] = Example 2, prostate cancer patients progressing on ADT
[10] = on estradiol vs pre-treatment, about 4 weeks
[11] = on estrogen, about 4 weeks, 0.6 mg estradiol/day transdermal, men with AIPC
[12] = on estrogen, about 4 weeks, 0.6 mg/day transdermal, data from 18 subjects

## C[C@]12CC[C@@H]3c4ccc(O)cc4CC[C@H]3[C@@H]1CC[C@@H]2O [Estradiol, estra-1,3,5(10)-triene-3,17β-diol]
[1]; [8]
  long-term memory: significant improvement in their long-term memory
[1]; [9]
  verbal memory performance (immediate Paragraph Recall, FIG. 2): improved verbal memory performance
[1]; [10]
  delayed Paragraph Recall test score improvement: 27%
  immediate Paragraph Recall test score improvement: 19%
[1]; [11]
  Paragraph Recall (delay; # correct): 18.8 # correct
  Paragraph Recall (immediate; # correct): 22.9 # correct
[2]; Visit 2, after about 4 weeks transdermal estradiol, Example 2
  Estradiol (serum): 428.8 (280.7) pg/mL
[2]; human, serum, other: transdermal, 0.6 mg/day, 1 month of treatment, Example 1, read-out: Estradiol, mean ± 95% CI
  concentration at 1 month: 0.46 ± 0.126 ng/mL
[2]; human, serum, other: transdermal, 0.6 mg/day, 2 months of treatment, Example 1, read-out: Estradiol, mean ± 95% CI
  concentration at 2 months: 0.371 ± 0.115 ng/mL
[3]
  confusion (POMS, FIGS. 3 and 4): trend for men receiving estradiol to report a decrease in confusion
[4]
  thromboembolic complications or other significant toxicity: no thromboembolic complications or other significant toxicity issues
[5]; [9]
  working memory (Trails test, FIG. 1): did not affect working memory
[5]; on estrogen, about 4 weeks, 0.6 mg/day transdermal, data from 15 subjects
  Trails (seconds B-A): 69.9 s
[6]; [8]
  working memory (Subject-Ordered and Trails tests): no change in working memory
[6]; [12]
  Subject Ordered (# of errors), 8 item: 6.3 # of errors
  Subject Ordered (# of errors), 10 item: 7.0 # of errors
[7]
  Free T: 3.5 (1.9) pmol/L
  Total T: 9.7 (3.9) ng/dL
